Assay results: patent US9302988B2, “Fluoromethyl-substituted pyrrole carboxamides” (GRÜNENTHAL GMBH, priority 2012, dated 2016)

Target: T1, Human CaV2.2 channels (Homo sapiens, UniProt Q00975)
T1 construct: expressed in transfected cells
Experiment: Fluorescent assay for CaV2.2 channels using potassium depolarization to induce channel opening (FLIPR, Fluo-4)
Assay type: cell-based
Conditions: 3 μM test compound, 30 mM KCl, HEK293 cells stably expressing human CaV2.2; read-out: %-Inhib (CaV2.2) @3 μM @30 mM KCl
Method in brief: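 HEK293 cells stably co-expressing CaV2.2 with α2δ and β subunits plus Kir2.3 were Fluo-4 loaded, then preincubated 15 min at 25 °C with compound in 30 mM KCl buffer, pH 7.4. Depolarization was by adding buffer containing 210 mM KCl. Inhibition was taken from baseline-normalized peak fluorescence amplitude (ex 480/em 535 nm).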

T1 sequence (Q00975 whole entry): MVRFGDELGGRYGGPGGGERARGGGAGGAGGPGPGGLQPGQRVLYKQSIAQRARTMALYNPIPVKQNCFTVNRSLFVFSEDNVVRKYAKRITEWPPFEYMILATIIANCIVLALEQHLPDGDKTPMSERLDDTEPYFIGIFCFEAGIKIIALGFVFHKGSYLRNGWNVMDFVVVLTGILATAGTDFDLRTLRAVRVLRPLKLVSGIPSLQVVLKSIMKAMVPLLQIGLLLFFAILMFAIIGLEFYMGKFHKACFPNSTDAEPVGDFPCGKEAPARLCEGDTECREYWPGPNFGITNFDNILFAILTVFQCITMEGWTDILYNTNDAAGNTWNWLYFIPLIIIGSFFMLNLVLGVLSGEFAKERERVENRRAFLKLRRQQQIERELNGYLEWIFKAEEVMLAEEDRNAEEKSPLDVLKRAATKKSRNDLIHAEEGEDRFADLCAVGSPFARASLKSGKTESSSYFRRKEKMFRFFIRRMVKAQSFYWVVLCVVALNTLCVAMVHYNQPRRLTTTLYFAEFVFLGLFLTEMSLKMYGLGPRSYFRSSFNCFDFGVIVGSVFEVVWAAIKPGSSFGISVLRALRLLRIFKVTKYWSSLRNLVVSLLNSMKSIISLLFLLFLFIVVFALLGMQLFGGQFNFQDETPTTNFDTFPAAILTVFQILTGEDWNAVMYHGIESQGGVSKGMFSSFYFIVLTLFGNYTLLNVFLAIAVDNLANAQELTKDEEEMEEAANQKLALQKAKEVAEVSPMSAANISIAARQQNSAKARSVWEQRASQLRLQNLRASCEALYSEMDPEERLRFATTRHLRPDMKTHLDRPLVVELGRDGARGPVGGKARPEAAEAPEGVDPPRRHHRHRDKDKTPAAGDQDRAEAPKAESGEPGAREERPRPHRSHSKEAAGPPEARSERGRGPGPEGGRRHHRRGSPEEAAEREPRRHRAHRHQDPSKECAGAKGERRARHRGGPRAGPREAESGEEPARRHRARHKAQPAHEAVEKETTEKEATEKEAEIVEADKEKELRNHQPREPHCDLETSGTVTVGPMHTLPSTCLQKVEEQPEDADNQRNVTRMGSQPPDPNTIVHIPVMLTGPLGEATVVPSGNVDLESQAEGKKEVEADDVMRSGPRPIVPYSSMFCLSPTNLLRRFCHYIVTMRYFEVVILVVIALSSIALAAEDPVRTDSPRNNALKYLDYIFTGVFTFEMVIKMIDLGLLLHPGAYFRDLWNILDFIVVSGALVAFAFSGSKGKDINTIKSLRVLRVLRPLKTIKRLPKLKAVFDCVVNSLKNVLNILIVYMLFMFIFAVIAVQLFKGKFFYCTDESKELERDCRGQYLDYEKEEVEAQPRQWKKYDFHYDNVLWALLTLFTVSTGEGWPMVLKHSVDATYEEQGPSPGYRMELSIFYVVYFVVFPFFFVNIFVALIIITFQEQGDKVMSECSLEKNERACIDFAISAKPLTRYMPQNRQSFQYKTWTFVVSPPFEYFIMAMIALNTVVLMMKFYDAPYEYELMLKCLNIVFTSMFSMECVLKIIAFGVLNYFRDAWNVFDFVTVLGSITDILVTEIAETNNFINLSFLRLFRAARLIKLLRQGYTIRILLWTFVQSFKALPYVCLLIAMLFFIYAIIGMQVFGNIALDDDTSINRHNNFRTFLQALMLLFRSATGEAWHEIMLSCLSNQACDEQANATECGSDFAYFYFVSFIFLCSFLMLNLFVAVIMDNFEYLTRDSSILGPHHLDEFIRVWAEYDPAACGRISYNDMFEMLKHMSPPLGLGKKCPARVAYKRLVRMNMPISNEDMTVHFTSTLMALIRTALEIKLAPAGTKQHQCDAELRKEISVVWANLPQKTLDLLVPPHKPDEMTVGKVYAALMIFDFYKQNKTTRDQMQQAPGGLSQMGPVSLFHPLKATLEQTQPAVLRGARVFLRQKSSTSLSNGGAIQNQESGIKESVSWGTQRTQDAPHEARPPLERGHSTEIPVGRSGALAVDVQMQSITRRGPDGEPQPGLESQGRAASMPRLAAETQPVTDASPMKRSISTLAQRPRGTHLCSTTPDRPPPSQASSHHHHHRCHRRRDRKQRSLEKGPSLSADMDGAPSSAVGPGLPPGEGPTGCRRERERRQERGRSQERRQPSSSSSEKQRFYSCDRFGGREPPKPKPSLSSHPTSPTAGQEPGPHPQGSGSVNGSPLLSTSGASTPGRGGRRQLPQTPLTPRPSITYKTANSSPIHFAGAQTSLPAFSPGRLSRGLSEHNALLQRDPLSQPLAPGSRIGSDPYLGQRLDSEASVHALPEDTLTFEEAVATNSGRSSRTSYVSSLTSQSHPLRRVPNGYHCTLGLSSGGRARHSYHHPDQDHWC
T1 sequence (P54289 25-1103, further chain): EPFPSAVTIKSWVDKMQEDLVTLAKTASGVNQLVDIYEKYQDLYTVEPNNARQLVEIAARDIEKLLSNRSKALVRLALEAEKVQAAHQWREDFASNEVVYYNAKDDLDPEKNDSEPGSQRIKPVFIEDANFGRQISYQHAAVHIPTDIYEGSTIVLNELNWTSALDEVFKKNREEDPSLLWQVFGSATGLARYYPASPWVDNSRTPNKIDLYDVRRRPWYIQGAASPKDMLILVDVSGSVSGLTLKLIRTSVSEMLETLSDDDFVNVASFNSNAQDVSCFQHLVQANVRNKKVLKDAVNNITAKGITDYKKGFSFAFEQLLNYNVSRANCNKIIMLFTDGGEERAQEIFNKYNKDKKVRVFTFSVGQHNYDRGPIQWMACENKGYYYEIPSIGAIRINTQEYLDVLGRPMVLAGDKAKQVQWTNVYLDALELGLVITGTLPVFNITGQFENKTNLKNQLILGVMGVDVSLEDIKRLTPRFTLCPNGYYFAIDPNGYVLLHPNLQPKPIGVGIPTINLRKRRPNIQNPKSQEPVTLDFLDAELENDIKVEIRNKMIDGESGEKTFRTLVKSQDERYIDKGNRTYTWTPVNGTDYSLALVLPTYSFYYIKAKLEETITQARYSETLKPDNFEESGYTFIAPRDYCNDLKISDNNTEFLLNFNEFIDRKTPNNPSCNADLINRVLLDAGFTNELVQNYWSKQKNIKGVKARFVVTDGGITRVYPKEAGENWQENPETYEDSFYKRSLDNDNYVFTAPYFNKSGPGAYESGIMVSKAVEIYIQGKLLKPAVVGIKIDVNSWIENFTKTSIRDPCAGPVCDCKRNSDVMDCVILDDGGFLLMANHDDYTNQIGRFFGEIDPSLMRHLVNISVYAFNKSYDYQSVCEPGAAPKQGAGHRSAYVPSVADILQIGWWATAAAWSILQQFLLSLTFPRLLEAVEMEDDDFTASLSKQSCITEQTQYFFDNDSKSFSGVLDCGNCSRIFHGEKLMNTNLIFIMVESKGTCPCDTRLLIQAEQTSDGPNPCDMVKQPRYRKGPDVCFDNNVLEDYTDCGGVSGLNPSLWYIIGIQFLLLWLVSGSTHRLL
T1 sequence (P54284 whole entry, further chain): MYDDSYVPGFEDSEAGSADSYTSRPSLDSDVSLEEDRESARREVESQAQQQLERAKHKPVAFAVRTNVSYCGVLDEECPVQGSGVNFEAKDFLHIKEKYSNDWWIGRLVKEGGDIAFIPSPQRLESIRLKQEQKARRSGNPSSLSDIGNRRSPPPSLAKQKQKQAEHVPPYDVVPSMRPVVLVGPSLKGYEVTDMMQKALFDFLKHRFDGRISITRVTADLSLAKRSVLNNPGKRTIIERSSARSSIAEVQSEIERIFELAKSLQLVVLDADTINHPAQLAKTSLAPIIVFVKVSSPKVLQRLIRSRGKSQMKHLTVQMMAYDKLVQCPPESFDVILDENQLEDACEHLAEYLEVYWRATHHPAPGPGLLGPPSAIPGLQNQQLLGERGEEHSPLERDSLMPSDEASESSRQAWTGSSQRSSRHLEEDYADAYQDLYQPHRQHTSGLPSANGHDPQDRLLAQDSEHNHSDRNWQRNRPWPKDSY

CN(CCN1CCCC1)CC(C)(C)CN(C)C(=O)c1c(-c2ccc(Cl)cc2)cc(C(F)(F)F)n1Cc1ccccc1 [SC-203, 1-Benzyl-3-(4-chlorophenyl)-N-[2,2-dimethyl-3-[methyl-(2-pyrrolidin-1-yl-ethyl)-amino]-propyl]-N-methyl-5-(trifluoromethyl)-1H-pyrrole-2-carboxylic acid amide]
inhibition at 3 µM: > 95%

Cc1cc(CN(C)C(=O)c2c(-c3ccc(Cl)cc3)cc(C(F)(F)F)n2Cc2ccccc2)on1 [SC-204, 1-Benzyl-3-(4-chlorophenyl)-N-methyl-N-[(3-methyl-isoxazol-5-yl)-methyl]-5-(trifluoromethyl)-1H-pyrrole-2-carboxylic acid amide]
inhibition at 3 µM: 75 to 95%

Cc1cc(CN(C)C(=O)c2c(-c3ccc(Cl)cc3)cc(C(F)(F)F)n2Cc2ccccc2)no1 [SC-205, 1-Benzyl-3-(4-chlorophenyl)-N-methyl-N-[(5-methyl-isoxazol-3-yl)-methyl]-5-(trifluoromethyl)-1H-pyrrole-2-carboxylic acid amide]
inhibition at 3 µM: > 95%

Cc1nnc(CN(C)C(=O)c2c(-c3ccc(Cl)cc3)cc(C(F)(F)F)n2Cc2ccccc2)o1 [SC-206, 1-Benzyl-3-(4-chlorophenyl)-N-methyl-N-[(5-methyl-[1,3,4]oxadiazol-2-yl)-methyl]-5-(trifluoromethyl)-1H-pyrrole-2-carboxylic acid amide]
inhibition at 3 µM: 75 to 95%

CN(Cc1ccncn1)C(=O)c1c(-c2ccc(Cl)cc2)cc(C(F)(F)F)n1Cc1ccccc1 [SC-207, 1-Benzyl-3-(4-chlorophenyl)-N-methyl-N-(pyrimidin-4-yl-methyl)-5-(trifluoromethyl)-1H-pyrrole-2-carboxylic acid amide]
inhibition at 3 µM: > 95%

COC1CCN(C(=O)c2c(-c3ccc(Cl)cc3)cc(C(F)(F)F)n2Cc2ccccc2)CC1 [SC-208, [1-Benzyl-3-(4-chlorophenyl)-5-(trifluoromethyl)-1H-pyrrol-2-yl]-(4-methoxy-piperidin-1-yl)-methanone]
inhibition at 3 µM: > 95%

CC(=O)N1CCN(C(=O)c2c(-c3ccc(Cl)cc3)cc(C(F)(F)F)n2Cc2ccccc2)CC1 [SC-209, 1-[4-[1-Benzyl-3-(4-chlorophenyl)-5-(trifluoromethyl)-1H-pyrrole-2-carbonyl]-piperazin-1-yl]-ethanone]
inhibition at 3 µM: > 95%

CN(Cc1cnccn1)C(=O)c1c(-c2ccc(Cl)cc2)cc(C(F)(F)F)n1Cc1ccccc1 [SC-210, 1-Benzyl-3-(4-chlorophenyl)-N-methyl-N-(pyrazin-2-yl-methyl)-5-(trifluoromethyl)-1H-pyrrole-2-carboxylic acid amide]
inhibition at 3 µM: 75 to 95%

CN(Cc1nccn1C)C(=O)c1c(-c2ccc(Cl)cc2)cc(C(F)(F)F)n1Cc1ccccc1 [SC-212, 1-Benzyl-3-(4-chlorophenyl)-N-methyl-N-[(1-methyl-1H-imidazol-2-yl)-methyl]-5-(trifluoromethyl)-1H-pyrrole-2-carboxylic acid amide]
inhibition at 3 µM: > 95%

CC(C)N(C)C(=O)c1c(-c2ccc(Cl)cc2)cc(C(F)(F)F)n1Cc1ccccc1 [SC-213, 1-Benzyl-3-(4-chlorophenyl)-N-isopropyl-N-methyl-5-(trifluoromethyl)-1H-pyrrole-2-carboxylic acid amide]
inhibition at 3 µM: > 95%

CC(C)NC(=O)c1c(-c2ccc(Cl)cc2)cc(C(F)(F)F)n1Cc1ccccc1 [SC-214, 1-Benzyl-3-(4-chlorophenyl)-N-isopropyl-5-(trifluoromethyl)-1H-pyrrole-2-carboxylic acid amide]
inhibition at 3 µM: 75 to 95%

Cc1cnc(CN(C)C(=O)c2c(-c3ccc(Cl)cc3)cc(C(F)(F)F)n2Cc2ccccc2)cn1 [SC-215, 1-Benzyl-3-(4-chlorophenyl)-N-methyl-N-[(5-methyl-pyrazin-2-yl)-methyl]-5-(trifluoromethyl)-1H-pyrrole-2-carboxylic acid amide]
inhibition at 3 µM: > 95%

CN(Cc1cnc(N(C)C)nc1)C(=O)c1c(-c2ccc(Cl)cc2)cc(C(F)(F)F)n1Cc1ccccc1 [SC-216, 1-Benzyl-3-(4-chlorophenyl)-N-[(2-dimethylamino-pyrimidin-5-yl)-methyl]-N-methyl-5-(trifluoromethyl)-1H-pyrrole-2-carboxylic acid amide]
inhibition at 3 µM: 75 to 95%

O=C(c1c(-c2ccc(Cl)cc2)cc(C(F)(F)F)n1Cc1ccccc1)N1CCn2ccnc2C1 [SC-217, [1-Benzyl-3-(4-chlorophenyl)-5-(trifluoromethyl)-1H-pyrrol-2-yl]-(5,6,7,8-tetrahydro-imidazo[1,2-a]pyrazin-7-yl)-methanone]
inhibition at 3 µM: > 95%

Cc1c(-c2ccc(F)cc2)c(C(=O)N(C)CC(C)(C)CO)n(Cc2ccccc2)c1C(F)(F)F [SC-218, 1-Benzyl-3-(4-fluorophenyl)-N-(3-hydroxy-2,2-dimethyl-propyl)-N,4-dimethyl-5-(trifluoromethyl)-1H-pyrrole-2-carboxylic acid amide]
inhibition at 3 µM: > 95%

Cc1c(-c2ccc(F)cc2)c(C(=O)N(C)CCS(C)(=O)=O)n(Cc2ccccc2)c1C(F)(F)F [SC-219, 1-Benzyl-3-(4-fluorophenyl)-N,4-dimethyl-N-(2-methylsulfonyl-ethyl)-5-(trifluoromethyl)-1H-pyrrole-2-carboxylic acid amide]
inhibition at 3 µM: > 95%

Cc1c(-c2ccc(F)cc2)c(C(=O)N(C)C2CCOCC2)n(Cc2ccccc2)c1C(F)(F)F [SC-220, 1-Benzyl-3-(4-fluorophenyl)-N,4-dimethyl-N-tetrahydro-pyran-4-yl-5-(trifluoromethyl)-1H-pyrrole-2-carboxylic acid amide]
inhibition at 3 µM: > 95%

Cc1c(-c2ccc(F)cc2)c(C(=O)N(C)C2CC2)n(Cc2ccccc2)c1C(F)(F)F [SC-221, 1-Benzyl-N-cyclopropyl-3-(4-fluorophenyl)-N,4-dimethyl-5-(trifluoromethyl)-1H-pyrrole-2-carboxylic acid amide]
inhibition at 3 µM: > 95%

Cc1c(-c2ccc(F)cc2)c(C(=O)N(C)C(C)(C)CO)n(Cc2ccccc2)c1C(F)(F)F [SC-222, 1-Benzyl-3-(4-fluorophenyl)-N-(2-hydroxy-1,1-dimethyl-ethyl)-N,4-dimethyl-5-(trifluoromethyl)-1H-pyrrole-2-carboxylic acid amide]
inhibition at 3 µM: > 95%

Cc1c(-c2ccc(F)cc2)c(C(=O)N2CC(O)C2)n(Cc2ccccc2)c1C(F)(F)F [SC-223, [1-Benzyl-3-(4-fluorophenyl)-4-methyl-5-(trifluoromethyl)-1H-pyrrol-2-yl]-(3-hydroxy-azetidin-1-yl)-methanone]
inhibition at 3 µM: 75 to 95%

Cc1c(-c2ccc(F)cc2)c(C(=O)N(C)CC(C)(C)C)n(Cc2ccccc2)c1C(F)(F)F [SC-224, 1-Benzyl-N-(2,2-dimethyl-propyl)-3-(4-fluorophenyl)-N,4-dimethyl-5-(trifluoromethyl)-1H-pyrrole-2-carboxylic acid amide]
inhibition at 3 µM: 75 to 95%

Cc1c(-c2ccc(F)cc2)c(C(=O)N2CCOC(C)(C)C2)n(Cc2ccccc2)c1C(F)(F)F [SC-225, [1-Benzyl-3-(4-fluorophenyl)-4-methyl-5-(trifluoromethyl)-1H-pyrrol-2-yl]-(2,2-dimethyl-morpholin-4-yl)-methanone]
inhibition at 3 µM: > 95%

Cc1c(-c2ccc(F)cc2)c(C(=O)N(C)CC2CCOC2)n(Cc2ccccc2)c1C(F)(F)F (stereo not drawn) [SC-226, 1-Benzyl-3-(4-fluorophenyl)-N,4-dimethyl-N-(tetrahydro-furan-3-yl-methyl)-5-(trifluoromethyl)-1H-pyrrole-2-carboxylic acid amide]
inhibition at 3 µM: > 95%

Cc1c(-c2ccc(C(F)(F)F)cc2)c(C(=O)N(C)CC(C)(C)CO)n(Cc2ccccc2)c1C(F)(F)F [SC-227, 1-Benzyl-N-(3-hydroxy-2,2-dimethyl-propyl)-N,4-dimethyl-5-(trifluoromethyl)-3-[4-(trifluoromethyl)-phenyl]-1H-pyrrole-2-carboxylic acid amide]
inhibition at 3 µM: 75 to 95%

Cc1c(-c2ccc(C(F)(F)F)cc2)c(C(=O)N(C)CCS(C)(=O)=O)n(Cc2ccccc2)c1C(F)(F)F [SC-228, 1-Benzyl-N,4-dimethyl-N-(2-methylsulfonyl-ethyl)-5-(trifluoromethyl)-3-[4-(trifluoromethyl)-phenyl]-1H-pyrrole-2-carboxylic acid amide]
inhibition at 3 µM: 75 to 95%

Cc1c(-c2ccc(C(F)(F)F)cc2)c(C(=O)N(C)C2CCOCC2)n(Cc2ccccc2)c1C(F)(F)F [SC-229, 1-Benzyl-N,4-dimethyl-N-tetrahydro-pyran-4-yl-5-(trifluoromethyl)-3-[4-(trifluoromethyl)-phenyl]-1H-pyrrole-2-carboxylic acid amide]
inhibition at 3 µM: 75 to 95%

Cc1c(-c2ccc(C(F)(F)F)cc2)c(C(=O)N(C)C2CC2)n(Cc2ccccc2)c1C(F)(F)F [SC-230, 1-Benzyl-N-cyclopropyl-N,4-dimethyl-5-(trifluoromethyl)-3-[4-(trifluoromethyl)-phenyl]-1H-pyrrole-2-carboxylic acid amide]
inhibition at 3 µM: 40 to 75%

Cc1c(-c2ccc(C(F)(F)F)cc2)c(C(=O)N(C)C(C)(C)CO)n(Cc2ccccc2)c1C(F)(F)F [SC-231, 1-Benzyl-N-(2-hydroxy-1,1-dimethyl-ethyl)-N,4-dimethyl-5-(trifluoromethyl)-3-[4-(trifluoromethyl)-phenyl]-1H-pyrrole-2-carboxylic acid amide]
inhibition at 3 µM: > 95%

Cc1c(-c2ccc(C(F)(F)F)cc2)c(C(=O)N2CC(O)C2)n(Cc2ccccc2)c1C(F)(F)F [SC-232, [1-Benzyl-4-methyl-5-(trifluoromethyl)-3-[4-(trifluoromethyl)-phenyl]-1H-pyrrol-2-yl]-(3-hydroxy-azetidin-1-yl)-methanone]
inhibition at 3 µM: 40 to 75%

Cc1c(-c2ccc(C(F)(F)F)cc2)c(C(=O)N(C)CC(C)(C)C)n(Cc2ccccc2)c1C(F)(F)F [SC-233, 1-Benzyl-N-(2,2-dimethyl-propyl)-N,4-dimethyl-5-(trifluoromethyl)-3-[4-(trifluoromethyl)-phenyl]-1H-pyrrole-2-carboxylic acid amide]
inhibition at 3 µM: 30 to 40%
